Test results as given in patent US20090093544A1, “INSECTICIDAL COMPOSITIONS HAVING IMPROVED EFFECT” (Bayer CropScience AG, priority 2005, published 2009).

Tested on: Spodoptera frugiperda
Assay: Spodoptera frugiperda test (SPODFR), spray treatment of maize plants
Assay type: in vivo
Conditions: 168 h, read-out: Mortality/% 7 d
Procedure: Spodoptera frugiperda—Test (SPODFR)
For the preparation of an expedient active ingredient preparation, 1 part by weight of active ingredient is mixed with the stated amounts of solvent and emulsifier, and the concentrate is diluted with emulsifier-containing water to the desired concentration. If it is necessary to add ammonium salts or ammonium salts and penetration promoter, the corresponding amount is pipetted into each of the ready preparation solution after the dilution.
Maize plants (Zea mais) are treated with the active ingredient preparation in the desired concentration by spraying and are populated with caterpillars of the fall armyworm (Spodoptera frugiperda) as long as the leaves are still moist.
After the desired time, the kill in % is determined. 100% means that all caterpillars were killed; 0% means that no caterpillars were killed.

With Cc1cc(C(F)(C(F)(F)F)C(F)(F)F)ccc1NC(=O)c1cccc(Cl)c1C(=O)N[C@@H](C)CS(C)(=O)=O [(Ib)] the mortality at 0.192 g/ha was 70%.
